Like-named read-outs stand apart in the source and are kept apart here.
Columns and labels:
soybean = assay: Test C pre-/postemergence herbicide test; assay type: in vivo, Glycine max; settings: Glycine max, pre-emergence, read-out: Plant response rating, Soybean
Summary of the method: (§1)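 Greenhouse-grown plants were evaluated visually 12 to 14 days after treatment, with 100 meaning complete control and 0 no effect. Application was preemergence, or postemergence at 2 to 18 cm.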

woolly cupgrass = assay: Test C pre-/postemergence herbicide test; assay type: in vivo, Eriochloa villosa; settings: Eriochloa villosa, pre-emergence, 312 h, read-out: Plant response rating, Cupgrass, Woolly
Summary of the method: as §1

barnyardgrass = assay: Test C flooded paddy test; assay type: in vivo, Echinochloa crus-galli; settings: Echinochloa crus-galli
Summary of the method: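 Weeds and wheat were sprayed after emergence, at a height of 2 to 18 cm (1–4 leaves), and paddy barnyardgrass was flooded and treated at two leaves. Assessment took place 12–14 days later in the greenhouse on a 0-to-100 visual control scale. A dash means no result was obtained.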

ducksalad = assay: Test C flooded paddy test; assay type: in vivo, Heteranthera limosa; settings: Heteranthera limosa
yellow nutsedge = assay: Test C pre-/postemergence herbicide test; assay type: in vivo, Cyperus esculentus; settings: Cyperus, pre-emergence, read-out: Plant response rating, Nutsedge, Yellow
Summary of the method: as §1

morningglory = assay: Test C pre-/postemergence herbicide test; assay type: in vivo, Ipomoea coccinea; settings: Ipomoea, pre-emergence, read-out: Plant response rating, Morningglory
Summary of the method: as §1

giant foxtail [1] = assay: Test C pre-/postemergence herbicide test; assay type: in vivo, Setaria faberi; settings: Setaria faberi, pre-emergence, 312 h, read-out: Plant response rating, Foxtail, Giant
Summary of the method: as §1

velvetleaf = assay: Test A pre-/postemergence herbicide test; assay type: in vivo, Abutilon theophrasti; settings: Abutilon theophrasti, 240 h; for pest or weed control at 500 g/ha: 500 g ai/ha; for pest or weed control at 2000 g/ha: 2000 g ai/ha
Summary of the method: (§2)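 Plants are held in greenhouse about ten days after treatment, then compared with untreated controls and scored 0 (no effect) to 100 (complete control). Preemergence dosing is a directed soil spray on sown sandy loam; postemergence dosing is spray to runoff at 2–10 cm height.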

large crabgrass = assay: Test A pre-/postemergence herbicide test; assay type: in vivo, Digitaria sanguinalis; settings: Digitaria sanguinalis, 240 h; for pest or weed control at 500 g/ha: 500 g ai/ha; for pest or weed control at 2000 g/ha: 2000 g ai/ha
Summary of the method: as §2

giant foxtail [2] = assay: Test A pre-/postemergence herbicide test; assay type: in vivo, Setaria faberi; settings: Setaria faberi, 240 h; for pest or weed control at 500 g/ha: 500 g ai/ha; for pest or weed control at 2000 g/ha: 2000 g ai/ha
Summary of the method: as §2

[3] = 62 g ai/ha, preemergence, scale 0 to 100
[4] = 500 g ai/ha, scale 0 to 100 (0 no effect, 100 complete control), visual, 12 to 14 days
[5] = 125 g ai/ha, scale 0 (no effect) to 100 (complete control), visual, 12 to 14 days

CCc1nn(C(C)(C)C)cc1C(=O)Nc1cc(C(=O)N(C)C)ccc1F [Compound 222, N-[5-[(dimethylamino)carbonyl]-2-fluorophenyl]-1-(1,1-dimethylethyl)-3-ethyl-1H-pyrazole-4-carboxamide]
plant injury at 62 g/ha (soybean; [3]): 40%
plant injury at 250 g/ha (soybean; 250 g ai/ha, scale 0-100): 100%
plant injury at 500 g/ha (soybean; [4]): 100%
pest or weed control at 62 g/ha (woolly cupgrass; [3]): 20%
pest or weed control at 125 g/ha (woolly cupgrass; [5]): 100%
pest or weed control at 250 g/ha (woolly cupgrass; 250 g ai/ha, scale 0-100): 100%
pest or weed control at 500 g/ha (woolly cupgrass; [4]): 100%
pest or weed control at 62 g/ha (barnyardgrass; 62 g ai/ha, scale 0 to 100 (0 no effect, 100 complete control), read-out: Barnyardgrass plant response rating): 15%
pest or weed control at 125 g/ha (barnyardgrass; 125 g ai/ha, scale 0 to 100 (0 no effect, 100 complete control), read-out: Barnyardgrass plant response rating): 75%
pest or weed control at 250 g/ha (barnyardgrass; 250 g ai/ha, scale of 0 to 100, 0 is no effect, 100 is complete control, read-out: Barnyardgrass plant response rating): 90%
pest or weed control at 500 g/ha (barnyardgrass; 500 g ai/ha, visual rating after 12 to 14 days, scale 0 to 100 (0 no effect, 100 complete control), read-out: Plant response rating, Barnyardgrass): 95%
pest or weed control at 62 g/ha (ducksalad; 62 g ai/ha, scale 0 to 100 (0 no effect, 100 complete control), read-out: Ducksalad plant response rating): 70%
pest or weed control at 125 g/ha (ducksalad; 125 g ai/ha, scale 0 to 100 (0 no effect, 100 complete control), read-out: Ducksalad plant response rating): 75%
pest or weed control at 250 g/ha (ducksalad; 250 g ai/ha, scale of 0 to 100, 0 is no effect, 100 is complete control, read-out: Ducksalad plant response rating): 85%
pest or weed control at 500 g/ha (ducksalad; 500 g ai/ha, visual rating after 12 to 14 days, scale 0 to 100 (0 no effect, 100 complete control), read-out: Plant response rating, Ducksalad): 95%
pest or weed control at 62 g/ha (yellow nutsedge; [3]): 0%
pest or weed control at 125 g/ha (yellow nutsedge; [5]): 0%
pest or weed control at 250 g/ha (yellow nutsedge; 250 g ai/ha, scale 0-100): 20%
pest or weed control at 500 g/ha (yellow nutsedge; [4]): 60%
pest or weed control at 62 g/ha (morningglory; [3]): 0%
pest or weed control at 125 g/ha (morningglory; [5]): 20%
pest or weed control at 250 g/ha (morningglory; 250 g ai/ha, scale 0-100): 30%
pest or weed control at 500 g/ha (morningglory; [4]): 100%
pest or weed control at 62 g/ha (giant foxtail [1]; [3]): 20%
pest or weed control at 125 g/ha (giant foxtail [1]; [5]): 85%
pest or weed control at 250 g/ha (giant foxtail [1]; 250 g ai/ha, scale 0-100): 95%
pest or weed control at 500 g/ha (giant foxtail [1]; [4]): 100%
pest or weed control at 500 g/ha (velvetleaf; post-emergence, Postemergence, 0 to 100 scale, 0 no effect, 100 complete control, read-out: Velvetleaf plant response rating): 80%
pest or weed control at 2000 g/ha (velvetleaf; post-emergence, Postemergence, 0 to 100 scale, 0 no effect, 100 complete control, read-out: Plant response rating, Velvetleaf): 100%
pest or weed control at 2000 g/ha (velvetleaf; pre-emergence, Preemergence, visual rating, 0 to 100 scale (0 no effect, 100 complete control), read-out: Velvetleaf plant response rating): 100%
pest or weed control at 500 g/ha (velvetleaf; pre-emergence, preemergence, visual injury, 0 to 100 scale (0 no effect, 100 complete control), read-out: Velvetleaf plant response rating): 95%
pest or weed control at 500 g/ha (large crabgrass; post-emergence, Postemergence, 0 to 100 scale, 0 no effect, 100 complete control, read-out: Crabgrass, Large plant response rating): 80%
pest or weed control at 2000 g/ha (large crabgrass; post-emergence, Postemergence, 0 to 100 scale, 0 no effect, 100 complete control, read-out: Plant response rating, Crabgrass, Large): 85%
pest or weed control at 2000 g/ha (large crabgrass; pre-emergence, Preemergence, visual rating, 0 to 100 scale (0 no effect, 100 complete control), read-out: Crabgrass, Large plant response rating): 95%
pest or weed control at 500 g/ha (large crabgrass; pre-emergence, preemergence, visual injury, 0 to 100 scale (0 no effect, 100 complete control), read-out: Crabgrass, Large plant response rating): 100%
pest or weed control at 500 g/ha (giant foxtail [2]; post-emergence, Postemergence, 0 to 100 scale, 0 no effect, 100 complete control, read-out: Foxtail, Giant plant response rating): 65%
pest or weed control at 2000 g/ha (giant foxtail [2]; post-emergence, Postemergence, 0 to 100 scale, 0 no effect, 100 complete control, read-out: Plant response rating, Foxtail, Giant): 85%
pest or weed control at 2000 g/ha (giant foxtail [2]; pre-emergence, Preemergence, visual rating, 0 to 100 scale (0 no effect, 100 complete control), read-out: Foxtail, Giant plant response rating): 100%
pest or weed control at 500 g/ha (giant foxtail [2]; pre-emergence, preemergence, visual injury, 0 to 100 scale (0 no effect, 100 complete control), read-out: Foxtail, Giant plant response rating): 95%
